Experimental data published in BindingDB's records for patent US11897867 (Bayer Aktiengesellschaft, 2024).

Tests used:
[1] = molecular target: cGMP-inhibited 3',5'-cyclic phosphodiesterase 3A (Homo sapiens, UniProt Q14432); assay: PDE3A Enzyme Inhibition
Description: (§1) The commercially available 3H-cAMP Scintillation Proximity Assay (SPA, Perkin Elmer) system was used for enzyme inhibition studies. For the determination of the in vitro effect of test substances on the PDE3A reactions 2 μl of the respective test compound solution in DMSO (serial dilutions) were is placed in wells of microtiter plates (Isoplate-96/200W; Perkin Elmer). 50 μl of a dilution of PDE3A cell extract from Sf9 cells overexpressing human full length PDE3A (SB Drug Discovery, UK) in buffer A (50 mM Tris/HCl pH 7.5, 8.3 mM MgCl2, 1.7 mM EDTA, 0.2% BSA) was added. The dilution of the PDE3A cell extract was chosen such that the reaction kinetics was linear and less than 70% of the substrate was consumed (typical dilution 1:5000). The reaction was started by addition of 50 μl (0.025 μCi) of 1:2000 in buffer A w/o BSA diluted substrate [8-3H] adenosine 3′,5′-cyclic phosphate (1 μCi/μl; Perkin Elmer). After incubation at room temperature for 60 min, the reaction was stopped by addition of 25 μl of a suspension containing 18 mg/ml yttrium scintillation proximity beads (Perkin Elmer) in water. The microtiter plates were sealed and measured in a Microbeta scintillation counter (PerkinElmer Wallac). IC50 values were determined from sigmoidal curves by plotting percentage PDE3A activity vs log compound concentration.

[2] = molecular target: cGMP-inhibited 3',5'-cyclic phosphodiesterase 3B (Homo sapiens, UniProt Q13370); assay: PDE3B Enzyme Inhibition
Description: as §1, with “PDE3B” for “PDE3A”, “were” for “were is”, “1:6000).” for “1:5000).”

cGMP-inhibited 3',5'-cyclic phosphodiesterase 3A, sequence (Q14432 whole entry): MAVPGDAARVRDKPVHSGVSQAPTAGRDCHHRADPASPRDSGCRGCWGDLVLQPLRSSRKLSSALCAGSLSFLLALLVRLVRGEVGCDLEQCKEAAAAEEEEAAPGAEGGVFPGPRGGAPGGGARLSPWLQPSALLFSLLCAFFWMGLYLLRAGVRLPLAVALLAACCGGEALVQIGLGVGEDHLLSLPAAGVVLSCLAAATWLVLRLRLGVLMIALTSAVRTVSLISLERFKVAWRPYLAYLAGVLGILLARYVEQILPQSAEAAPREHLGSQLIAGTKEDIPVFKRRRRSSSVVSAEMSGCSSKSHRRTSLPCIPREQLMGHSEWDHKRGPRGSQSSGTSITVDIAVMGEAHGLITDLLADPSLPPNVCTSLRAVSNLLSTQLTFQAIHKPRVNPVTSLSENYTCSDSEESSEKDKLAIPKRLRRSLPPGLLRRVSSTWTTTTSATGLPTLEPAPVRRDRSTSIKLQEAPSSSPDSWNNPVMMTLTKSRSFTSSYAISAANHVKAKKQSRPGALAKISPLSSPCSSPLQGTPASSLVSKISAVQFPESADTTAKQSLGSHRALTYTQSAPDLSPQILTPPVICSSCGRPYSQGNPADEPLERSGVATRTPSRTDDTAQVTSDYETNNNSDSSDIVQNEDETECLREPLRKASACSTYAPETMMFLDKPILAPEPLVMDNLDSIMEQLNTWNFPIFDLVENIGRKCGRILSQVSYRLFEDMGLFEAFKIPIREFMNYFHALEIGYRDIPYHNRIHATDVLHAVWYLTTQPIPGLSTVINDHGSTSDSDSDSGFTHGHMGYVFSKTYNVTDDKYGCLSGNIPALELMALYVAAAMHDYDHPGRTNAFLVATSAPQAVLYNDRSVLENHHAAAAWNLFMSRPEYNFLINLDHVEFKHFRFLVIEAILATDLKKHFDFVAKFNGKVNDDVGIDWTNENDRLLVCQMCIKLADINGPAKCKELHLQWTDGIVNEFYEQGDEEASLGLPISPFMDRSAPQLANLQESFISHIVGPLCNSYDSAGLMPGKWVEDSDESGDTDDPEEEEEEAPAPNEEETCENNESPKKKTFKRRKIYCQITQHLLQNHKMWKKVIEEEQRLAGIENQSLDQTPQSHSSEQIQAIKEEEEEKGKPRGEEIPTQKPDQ
cGMP-inhibited 3',5'-cyclic phosphodiesterase 3B, sequence (Q13370 whole entry): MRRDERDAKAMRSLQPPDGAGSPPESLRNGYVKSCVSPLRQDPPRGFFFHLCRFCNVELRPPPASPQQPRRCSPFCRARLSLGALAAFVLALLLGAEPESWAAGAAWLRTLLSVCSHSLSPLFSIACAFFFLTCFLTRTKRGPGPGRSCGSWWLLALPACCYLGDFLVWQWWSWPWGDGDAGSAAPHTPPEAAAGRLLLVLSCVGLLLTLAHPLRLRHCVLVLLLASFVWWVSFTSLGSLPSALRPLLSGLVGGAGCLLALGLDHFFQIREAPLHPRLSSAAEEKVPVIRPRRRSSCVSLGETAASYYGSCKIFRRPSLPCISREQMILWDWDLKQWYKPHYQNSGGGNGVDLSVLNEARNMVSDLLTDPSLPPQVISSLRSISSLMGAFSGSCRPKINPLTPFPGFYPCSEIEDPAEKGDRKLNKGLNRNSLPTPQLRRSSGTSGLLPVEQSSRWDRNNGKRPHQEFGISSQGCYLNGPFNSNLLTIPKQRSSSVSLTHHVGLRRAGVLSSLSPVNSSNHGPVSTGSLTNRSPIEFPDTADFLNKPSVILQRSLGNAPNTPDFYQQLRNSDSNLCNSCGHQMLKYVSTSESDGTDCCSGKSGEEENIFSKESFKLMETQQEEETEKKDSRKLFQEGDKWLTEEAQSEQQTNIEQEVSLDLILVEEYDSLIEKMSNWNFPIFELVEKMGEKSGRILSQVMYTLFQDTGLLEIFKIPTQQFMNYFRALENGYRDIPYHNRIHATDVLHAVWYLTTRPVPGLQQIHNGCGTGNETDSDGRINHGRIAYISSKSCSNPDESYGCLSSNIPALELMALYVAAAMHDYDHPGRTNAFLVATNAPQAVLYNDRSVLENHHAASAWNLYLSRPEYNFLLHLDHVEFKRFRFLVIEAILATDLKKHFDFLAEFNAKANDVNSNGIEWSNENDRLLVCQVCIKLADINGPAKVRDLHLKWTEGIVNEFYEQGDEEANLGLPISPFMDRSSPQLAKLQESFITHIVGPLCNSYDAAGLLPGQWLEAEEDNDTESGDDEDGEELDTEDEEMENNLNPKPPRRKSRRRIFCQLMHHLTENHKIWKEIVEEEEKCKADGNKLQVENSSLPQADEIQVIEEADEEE

SMILES | IC50 [1] | IC50 [2]
O=C1CCC(c2ccc(N3CCOCC3)cc2)=NN1 [US11897867, Example 123] | > 1000 nM | –
O=C1CCC(c2ccc(-c3ccccc3C(F)(F)F)c(F)c2)=NN1 [US11897867, Example 61] | 440 nM | 110 nM
